The values below come from ChEMBL document CHEMBL2380250, “Novel VEGFR-2 kinase inhibitors identified by the back-to-front approach” (Bioorg Med Chem Lett, 2013).

For orientation: IC50 means the midpoint of a concentration-inhibition curve.

The target in data set [1] is Platelet-derived growth factor receptor beta (Homo sapiens) (UniProt P09619). In words: Inhibition of human recombinant PDGFR-beta expressed in insect cells using Ulight-Poly GAT[EAY(1:1:1)] as substrate at 1 uM after 15 to 60 mins by fluorescence assay.
Platelet-derived growth factor receptor beta (Homo sapiens), sequence (P09619 whole entry): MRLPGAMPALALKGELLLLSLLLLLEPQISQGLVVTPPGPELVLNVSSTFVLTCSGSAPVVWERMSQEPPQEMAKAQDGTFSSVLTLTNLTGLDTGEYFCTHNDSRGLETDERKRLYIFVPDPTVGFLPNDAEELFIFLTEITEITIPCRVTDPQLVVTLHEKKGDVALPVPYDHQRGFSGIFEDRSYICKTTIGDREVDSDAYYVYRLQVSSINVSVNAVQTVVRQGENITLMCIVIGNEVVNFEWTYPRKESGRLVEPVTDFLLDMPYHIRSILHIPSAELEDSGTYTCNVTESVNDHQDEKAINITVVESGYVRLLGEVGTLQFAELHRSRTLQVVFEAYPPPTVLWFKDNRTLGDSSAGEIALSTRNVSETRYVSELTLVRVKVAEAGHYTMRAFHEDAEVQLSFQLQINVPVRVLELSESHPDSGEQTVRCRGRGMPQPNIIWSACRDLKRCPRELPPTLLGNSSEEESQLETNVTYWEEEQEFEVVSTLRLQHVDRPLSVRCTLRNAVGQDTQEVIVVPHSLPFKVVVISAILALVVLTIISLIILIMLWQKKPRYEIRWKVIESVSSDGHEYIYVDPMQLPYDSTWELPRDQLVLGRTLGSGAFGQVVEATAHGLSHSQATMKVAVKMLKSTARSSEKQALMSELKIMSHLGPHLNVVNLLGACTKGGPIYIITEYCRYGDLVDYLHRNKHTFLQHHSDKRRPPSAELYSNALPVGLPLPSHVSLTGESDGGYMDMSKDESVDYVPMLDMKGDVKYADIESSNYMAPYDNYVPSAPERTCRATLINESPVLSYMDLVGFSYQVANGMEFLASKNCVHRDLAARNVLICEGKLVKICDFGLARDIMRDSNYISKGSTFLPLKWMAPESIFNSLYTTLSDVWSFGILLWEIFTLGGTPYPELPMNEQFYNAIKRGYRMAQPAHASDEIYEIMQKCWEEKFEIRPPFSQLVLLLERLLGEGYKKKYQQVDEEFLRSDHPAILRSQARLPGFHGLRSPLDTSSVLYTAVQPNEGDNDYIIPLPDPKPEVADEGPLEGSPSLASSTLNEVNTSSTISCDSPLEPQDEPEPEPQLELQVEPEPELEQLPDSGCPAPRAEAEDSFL
The target in data set [2] is Epidermal growth factor receptor (Homo sapiens) (UniProt P00533). Description: Inhibition of human recombinant EGFR expressed in insect cells using Ulight-CAGAGAIETDKEYYTVKD as substrate at 1 uM after 15 to 60 mins by fluorescence assay.
Epidermal growth factor receptor (Homo sapiens), sequence (P00533 whole entry): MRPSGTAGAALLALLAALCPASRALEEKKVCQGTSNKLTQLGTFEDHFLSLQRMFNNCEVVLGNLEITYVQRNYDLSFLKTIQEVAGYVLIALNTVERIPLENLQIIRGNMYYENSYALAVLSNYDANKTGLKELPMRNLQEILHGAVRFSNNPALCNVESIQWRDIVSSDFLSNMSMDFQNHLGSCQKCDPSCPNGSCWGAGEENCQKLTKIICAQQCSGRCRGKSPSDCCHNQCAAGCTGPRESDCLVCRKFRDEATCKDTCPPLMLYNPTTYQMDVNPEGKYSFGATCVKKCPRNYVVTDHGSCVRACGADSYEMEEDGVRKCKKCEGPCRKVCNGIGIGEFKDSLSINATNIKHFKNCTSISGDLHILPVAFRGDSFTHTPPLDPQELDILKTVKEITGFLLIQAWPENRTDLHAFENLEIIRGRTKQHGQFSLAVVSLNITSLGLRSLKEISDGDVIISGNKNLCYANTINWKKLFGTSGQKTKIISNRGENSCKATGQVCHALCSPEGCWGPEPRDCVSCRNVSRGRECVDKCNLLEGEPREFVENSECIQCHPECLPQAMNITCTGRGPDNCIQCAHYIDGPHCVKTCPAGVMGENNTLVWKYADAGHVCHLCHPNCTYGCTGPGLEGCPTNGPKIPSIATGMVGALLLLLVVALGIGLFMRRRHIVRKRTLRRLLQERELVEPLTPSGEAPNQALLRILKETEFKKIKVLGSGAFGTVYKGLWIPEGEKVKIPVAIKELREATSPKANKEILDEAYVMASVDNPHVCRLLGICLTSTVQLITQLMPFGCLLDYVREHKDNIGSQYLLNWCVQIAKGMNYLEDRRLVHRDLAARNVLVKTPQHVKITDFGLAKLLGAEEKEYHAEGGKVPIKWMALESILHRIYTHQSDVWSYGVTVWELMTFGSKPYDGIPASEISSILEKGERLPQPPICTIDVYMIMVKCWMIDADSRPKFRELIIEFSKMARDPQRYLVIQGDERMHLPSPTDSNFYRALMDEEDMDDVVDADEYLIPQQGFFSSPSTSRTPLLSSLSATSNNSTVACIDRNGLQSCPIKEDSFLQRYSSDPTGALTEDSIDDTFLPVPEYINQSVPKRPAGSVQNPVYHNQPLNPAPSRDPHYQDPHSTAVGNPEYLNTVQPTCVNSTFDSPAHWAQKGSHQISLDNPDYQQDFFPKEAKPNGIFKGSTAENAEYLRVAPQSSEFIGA
The next data set concerns HUVEC. In words: Cytotoxicity against HUVEC by MTT assay. As to conditions: Homo sapiens.
A short description of data set [3]: Ratio of cytotoxicity against human EAhy926 cells to antiangiogenic activity in VEGF-stimulated human EAhy926 cells. The data set is classed as toxicity, cell-based.
The test system of a further data set is EA.hy 926. In words: Antiangiogenic activity in VEGF-stimulated human EAhy926 cells assessed as inhibition of tube formation at 0.3 uM measured at 24 hrs. The data set is classed as functional, cell-based.
Data set [4] can be described thus: Cytotoxicity against human EAhy926 cells assessed as growth inhibition by MTT assay. The data set is classed as cell-based. The settings on record: EA.hy 926. In general terms: Formazan colour is commonly taken as a measure of viable cells.
The test system of another data set is HepG2. Description: Cytotoxicity against human HepG2 cells assessed as growth inhibition by MTT assay. The data set is classed as cell-based.
Data set [5] is described as follows: Cytotoxicity against human H460 cells assessed as growth inhibition by MTT assay. The settings on record: NCI-H460. The data set is classed as cell-based.
In another data set the test system is MCF7. Description: Cytotoxicity against human MCF7 cells assessed as growth inhibition by MTT assay. Type of data set: cell-based.
The subject of another data set is HeLa. In words: Cytotoxicity against human HeLa cells assessed as growth inhibition by MTT assay. The data set is classed as cell-based.
For data set [6], the target named is Vascular endothelial growth factor receptor 2 (Homo sapiens, UniProt P35968). Description: Inhibition of human recombinant VEGFR2 expressed in insect cells using Ulight-CAGAGAIETDKEYYTVKD as substrate after 15 to 60 mins by fluorescence assay.
Vascular endothelial growth factor receptor 2, sequence (P35968 whole entry): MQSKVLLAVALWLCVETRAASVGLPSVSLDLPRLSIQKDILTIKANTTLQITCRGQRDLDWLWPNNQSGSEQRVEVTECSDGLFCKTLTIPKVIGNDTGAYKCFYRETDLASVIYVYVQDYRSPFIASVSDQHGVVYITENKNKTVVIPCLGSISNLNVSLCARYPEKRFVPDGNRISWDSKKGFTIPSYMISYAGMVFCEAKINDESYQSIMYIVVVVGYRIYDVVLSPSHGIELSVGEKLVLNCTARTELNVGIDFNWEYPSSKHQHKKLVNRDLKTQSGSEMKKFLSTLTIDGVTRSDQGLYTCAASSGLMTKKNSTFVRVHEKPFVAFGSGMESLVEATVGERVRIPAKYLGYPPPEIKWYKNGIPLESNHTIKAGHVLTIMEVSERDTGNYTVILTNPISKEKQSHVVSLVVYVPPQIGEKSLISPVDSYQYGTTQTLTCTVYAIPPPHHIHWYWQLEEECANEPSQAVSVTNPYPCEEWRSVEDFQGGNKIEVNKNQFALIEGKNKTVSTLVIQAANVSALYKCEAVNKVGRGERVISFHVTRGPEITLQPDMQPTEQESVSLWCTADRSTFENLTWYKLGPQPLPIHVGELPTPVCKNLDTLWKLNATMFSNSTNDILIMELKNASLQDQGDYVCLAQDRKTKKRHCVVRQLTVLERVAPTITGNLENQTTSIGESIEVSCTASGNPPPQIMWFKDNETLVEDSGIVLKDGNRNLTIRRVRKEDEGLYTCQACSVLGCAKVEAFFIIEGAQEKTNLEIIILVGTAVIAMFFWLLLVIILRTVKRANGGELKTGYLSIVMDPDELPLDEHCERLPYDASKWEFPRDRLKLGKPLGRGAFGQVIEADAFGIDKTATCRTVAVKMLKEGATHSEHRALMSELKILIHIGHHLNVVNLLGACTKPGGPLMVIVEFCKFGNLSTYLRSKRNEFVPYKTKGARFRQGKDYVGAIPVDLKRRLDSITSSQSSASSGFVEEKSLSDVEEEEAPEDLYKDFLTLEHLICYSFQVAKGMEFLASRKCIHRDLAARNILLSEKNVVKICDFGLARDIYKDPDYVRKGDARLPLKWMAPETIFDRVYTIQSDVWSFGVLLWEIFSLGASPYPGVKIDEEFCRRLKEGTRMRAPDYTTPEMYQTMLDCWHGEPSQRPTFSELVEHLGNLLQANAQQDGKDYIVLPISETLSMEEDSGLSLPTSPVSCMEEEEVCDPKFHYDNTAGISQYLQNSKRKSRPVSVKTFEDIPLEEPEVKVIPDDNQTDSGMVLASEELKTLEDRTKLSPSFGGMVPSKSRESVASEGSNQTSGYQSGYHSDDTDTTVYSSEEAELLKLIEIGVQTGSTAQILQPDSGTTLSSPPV

The source made the active and inactive calls. The calls are words filed in the database; no cut-off is given here. Bounds are passed on as bounds.

Take `NS(=O)(=O)c1cccc(-n2cc(CNC(=O)Nc3cccc(CCl)c3)nn2)c1`: the inhibition entry in data set [1] is “inactive”. Also, the inhibition entry in [2] was “Active”.
In the same order, the values of `C#CCNC(=O)Nc1cccc(CCl)c1` are “inactive” and “Active”.
`NS(=O)(=O)c1ccc(-n2cc(CNC(=O)Nc3cccc(CCl)c3)nn2)cc1`: in data set [1], the inhibition result is “inactive”. For the same compound, the inhibition entry in data set [2] was “Active”.
In the same order, the values of `O=C(NCc1cn(-c2ccc3[nH]ncc3c2)nn1)Nc1cccc(CCl)c1` are “inactive” and “Active”.
With `O=C(NCc1cn(-c2ccc(S(=O)(=O)N3CCOCC3)cc2)nn1)Nc1cccc(CCl)c1`, the inhibition entry in data set [1] is “inactive”. Moreover, in data set [2], the inhibition entry is “Active”.
Consider `O=C(NCc1cn(CCN2C(=O)c3ccccc3C2=O)nn1)Nc1cccc(CCl)c1`, for which the inhibition result in data set [1] was “inactive”. For the same compound, the inhibition entry in data set [2] is “Active”.
With `O=C(NCc1cn(-c2ccc3ncsc3c2)nn1)Nc1cccc(CCl)c1`, the inhibition result in [1] was “inactive”. The inhibition result in data set [2] was “Active”.
`CNC(=O)c1cc(Oc2ccc(NC(=O)Nc3ccc(Cl)c(C(F)(F)F)c3)cc2)ccn1` [SORAFENIB] gave an IC50 with HUVEC of 4 µM.
On to `O=C(NCc1cn(-c2ccc3cn[nH]c3c2)nn1)Nc1cccc(CCl)c1`, for which the selectivity ratio in [3] came out at 13. Also, the inhibition entry (in the data set with EA.hy 926; in data set [2]) was “Active” throughout. Besides, the IC50 was 4 µM in data set [4]; over 100 µM in the data set on HepG2; 71 µM in data set [5]; 21 µM in the data set with MCF7; 33 µM with HeLa; 0.56 µM in data set [6]. The inhibition entry in data set [1] was “inactive”.
In the case of `CC(=O)N1CCc2ccc(-n3cc(CNC(=O)Nc4cccc(CCl)c4)nn3)cc21`, the inhibition entry in data set [1] is “inactive”. Also, the inhibition result in [2] was “Active”.
In the same order, the values of `O=C(NCc1cn(-c2ccc3scnc3c2)nn1)Nc1cccc(CCl)c1` are “inactive” and “Active”.
Take `COC(=O)c1ccc(-n2cc(CNC(=O)Nc3cccc(CCl)c3)nn2)cc1`: the inhibition result in data set [1] is “inactive”. Further, in data set [2], the inhibition result is “Active”.
In the same order, the values of `O=C(NCc1cn(Cc2cc(=O)[nH]c3ccccc23)nn1)Nc1cccc(CCl)c1` are “inactive” and “Active”.
